From patent US20210308113A1, “METHOD OF ADMINISTERING A […] EFFECTIVE AMOUNT OF 5-[[4-[2-[5-(1-HYDROXYETHYL)PYRIDIN-2-YL]ETHOXY]PHENYL]METHYL]-1,3-THIAZOLIDINE-2,4-DIONE” (MINORYX THERAPEUTICS S.L., priority 2018, published 2021)
Read-outs that look alike come from different tables or passages of the source.

What was measured:
[1] = Multiple ascending dose (MAD) study, pharmacokinetics in human subjects; assay type: in vivo
Description: The mean AUC0-tau ss (% CV) (135 μg·h/mL (20)) and Cmaxss (% CV) (9488 ng/ml (17)) was determined at the steady state day 8 in case 135 mgs. The mean AUC0-tau ss (% CV) (299 μg·h/mL (21) and Cmaxss(% CV) (17200 ng/ml (18) was determined at the steady state day 8 in case 270 mgrs.
Across all ascending dose studies in humans the increase in dose is linearly related to the increase in AUC. Because of the inter subject variability in clearance it is required to select a start dose which is not excessively above the 200 μg·h/mL target AUCs.
The PK data from the MAD study was used to generate a start dose which is most likely no cause toxicity or adverse events in subjects. A dose of 150 mg was chosen as it would give a geometric mean AUCtau of 167 μg·h/mL SD 33 with a 95% confidence interval of 102-232 μg·h/mL. At this dose approximated 75% of patients will be below 200 μg·h/mL and it is unlikely that any patient will exceed 240 μg·h/mL.

[2] = molecular target: T1, mitochondrial pyruvate carrier (MPC) (Homo sapiens, UniProt O95563+Q9Y5U8); test: BRET assay of MPC inhibitory activity in HEK cells expressing MPC2-Rluc8 and MPC1-Venus; assay type: cell-based
T1 construct: expressed in transfected cells
T1 sequence (O95563 1-127): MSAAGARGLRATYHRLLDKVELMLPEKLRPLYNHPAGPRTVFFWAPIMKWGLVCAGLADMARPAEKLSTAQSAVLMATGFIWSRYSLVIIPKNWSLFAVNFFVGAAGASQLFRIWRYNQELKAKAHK
T1 sequence (Q9Y5U8 1-109): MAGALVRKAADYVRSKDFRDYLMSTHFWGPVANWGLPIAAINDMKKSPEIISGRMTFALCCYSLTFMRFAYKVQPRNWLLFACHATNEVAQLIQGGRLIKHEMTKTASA
Description: The MPC is a heterodimer composed of two subunits, MPC1 and MPC2. MPC1 and MPC2 interact to form an active carrier. In the assay, MPC2 was fused to Rluc8 (Donor) and MPC1 to Venus (Acceptor). These chimeric proteins were stably expressed in HEK cells. BRET activity was measured following addition of coelenterazine in the culture medium. Coelenterazine enters into cells and in contact with luciferase Rluc8 emits light, which activates the emission of fluorescence by the Acceptor, provided the distance between the Donor and Acceptor is <[…]. If the distance between Donor and Acceptor is >[…], no BRET activity is measured. The level of BRET activity reflects a change in the conformation of the MPC: it is high when the carrier is in a closed conformation, low when the carrier is at rest and intermediary when it transports pyruvate. In this case, the BRET activity is the mean value between the BRET value when the carrier is at rest (Maximal distance between Donor and Acceptor) and the BRET value when it is closed (Shortest distance between Donor and Acceptor)
A wide range of concentrations of each of the tested compounds was used from 1 nM to 100 μM.

[3] = test system: wild type MDA MB231 cells; test: Seahorse oxygen consumption rate (OCR) in wild type MDA MB231 cells; assay type: cell-based
Description: (§1) To determine whether Compound (1) HCl has any effect on pyruvate-mediated mitochondrial respiration, the extracellular flux analyzer Seahorse was used as described in Compan et al. Seahorse experiments were performed in the following cell lines: HeLa (Cervix cancer cells), A549 (lung cancer cells), wild type MDA MB 231, and MDA MB 231 in which MPC2 has been deleted, leading to inactivation of the MPC (MDA MB231 KO). MDA MB231 cells are epithelial breast cancer cells. Cells were incubated with increasing concentrations of the compounds for one hour at 37° C. before oxygen consumption rate (OCR) measurements. The Seahorse analyzer allowed to measure basal and maximal respiration measured upon depolarization with 1 μM CCCP. […] The KO cells have been deleted of the MPC2 gene and therefore they display no MPC activity. The top panel show a representative experiment of either wild type (WT) or KO cell lines. […] OCR values are expressed as ratios of OCR in the presence of different concentrations of the tested compound over the OCR in PBS alone.

adiponectin = test: Plasma adiponectin by ELISA in Sprague Dawley rats as a measure of PPAR gamma engagement; assay type: in vivo, rat; conditions: 7 days, 54 mg/Kg/day, plasma 1 h after last administration, vs vehicle p<0.0001
Description: Evaluation of effect of Compound (1) HCl on adiponectin was performed in Sprague Dawley wild type rats as a measure of PPAR gamma engagement. The rats were treated for 7 days with increasing doses of Compound (1) HCl at 54 mg/Kg/day. Plasma were obtained at 1 h after the last Compound (1) HCl administration. Adiponectin levels were measured by ELISA. Results were represented as mean+standard error of the mean of n=8. Data were analyzed by Kruskal-Wallis followed by the Dunn post-hoc test versus the vehicle group (****, p<0.0001).

[4] = test system: MCD diet fed C57BL6/J mice; test: 7-week Methionine Choline Deficient (MCD) diet NASH mouse model; assay type: in vivo
Description: The preventive effects of Compound (1) HCl was evaluated in a 7-week Methionine Choline Deficient (MCD) diet NASH mouse model (Verdelho Machado et al.). After the acclimation period, C57BL6/J male mice (n=20) were weighed and randomized into 2 homogenous treatment groups based on body weight (n=10/group), put on a MCD diet, and treated BID orally with vehicle or Compound (1) HCl for 7 weeks. Compound (1) HCl was dosed 62.5 mg/kg BID orally by gavage. […] Body weight was measured 3 times/week until the end of the experimental phase. At 7 weeks of diet/treatment, mice were weighed and treated at ˜08:00 am in the morning, then bled (maximal volume/EDTA) at […]. Plasma was then immediately isolated and stored at −80° C. prior to assay plasma ALT and AST. The plasma volume left over was stored at −80° C. for eventual additional analysis. After blood collection, the mice were sacrificed by cervical dislocation under isoflurane anesthesia and exsanguinated with sterile saline. A NAFLD scoring system (NAS) adapted from Kleiner et al. (Hepatology. 41(6):1313-1321 (2005)) using the criteria described in the Table 2 below: Several other histopathological observations described in clinical human cases and originally reported in the NAS scoring system published by Kleiner et al. were not observed in this animal study, such as lipogranuloma, acidophil bodies, megamitochondria, and pigmented macrophages. Therefore, it was elected not to include them in the scoring system described above. An individual mouse NAS total score was calculated for each animal by summing up the score for (1) hepatocellular steatosis, (2) liver inflammation, (3) lobular fibrosis, and (4) hepatocyte ballooning. Histology analysis was performed (oil red 0, H&E and Sirius Red staining) for NAFLD scoring system (NAS) for liver steatosis, inflammation, fibrosis and hepatocyte ballooning.

A549 cells = test: Seahorse oxygen consumption rate (OCR) in A549 cells; assay type: cell-based; conditions: Homo sapiens, 1 h incubation at 37° C.
Description: (§2) To determine whether Compound (1) HCl has any effect on pyruvate-mediated mitochondrial respiration, the extracellular flux analyzer Seahorse was used as described in Compan et al. Seahorse experiments were performed in the following cell lines: HeLa (Cervix cancer cells), A549 (lung cancer cells), wild type MDA MB 231, and MDA MB 231 in which MPC2 has been deleted, leading to inactivation of the MPC (MDA MB231 KO). MDA MB231 cells are epithelial breast cancer cells. Cells were incubated with increasing concentrations of the compounds for one hour at 37° C. before oxygen consumption rate (OCR) measurements. The Seahorse analyzer allowed to measure basal and maximal respiration measured upon depolarization with 1 μM CCCP. Effects of Compound (1) HCl on oxygen consumption rates (OCR) in HeLa cells (FIG. 3A) and A549 cells (FIG. 3B) in a representative experiment of n=3. OCR values are expressed as ratios of OCR in the presence of different concentrations of compounds over the OCR in PBS alone.

MDA MB231 KO cells = test: Seahorse oxygen consumption rate (OCR) in MDA MB231 KO cells (MPC2 deleted); assay type: cell-based; conditions: MPC activity genetically deleted
Description: as §1

HeLa cells = test: Seahorse oxygen consumption rate (OCR) in HeLa cells; assay type: cell-based; conditions: Homo sapiens, 1 h incubation at 37° C.
Description: as §2

In the case of `CC(O)c1ccc(CCOc2ccc(CC3SC(=O)NC3=O)cc2)nc1` (stereo not drawn) [Compound (1), 5-[[4-[2-[5-(1-hydroxyethyl)pyridin-2-yl]ethoxy]phenyl]methyl]-1,3-thiazolidine-2,4-dione], the linearity of pharmacokinetics ([1]; humans) is reported as “linear pharmacokinetics” and the oral bioavailability ([1]; humans) is reported as “orally bioavailable”.
With `CN(CCOc1ccc(CC2SC(=O)NC2=O)cc1)c1ccccn1` (stereo not drawn) [Rosiglitazone, rosiglitazone, reference compound] the IC50 [2] was 2 µM.
For `CC(O)c1ccc(CCOc2ccc(CC3SC(=O)NC3=O)cc2)nc1.Cl` (stereo not drawn) [Compound (1) HCl, 5-[[4-[2-[5-(1-hydroxyethyl)pyridin-2-yl]ethoxy]phenyl]methyl]-1,3-thiazolidine-2,4-dione hydrochloride], the “effect on oxygen consumption” value [3] was “inhibits oxygen consumption in a MPC dependent manner”, the plasma adiponectin levels (adiponectin) was “significantly increased” and the IC50 ([2]; BRET assay, HEK cells, read-out: IC50 MPC inhibitory activity) was 4.1 µM. For the same molecule, the hepatic cholesterol levels ([4]; 62.5 mg/kg BID orally, 7 weeks) was “did not show a change”, the body weight loss ([4]; 62.5 mg/kg BID orally, day 14 to day 50) was “less severe decline in body weight loss” and the liver inflammation ([4]; 7 weeks) was “total disappearance of inflammation”. For the same molecule, the “oil red o staining %” value ([4]; 7 weeks, vs vehicle p<0.001) was “extremely low”, the steatosis score ([4]; 7 weeks, vs vehicle p<0.001) was “blunted steatosis score” and the IC50 (A549 cells) was roughly 5 µM. The “effect on oxygen consumption” value (MDA MB231 KO cells) was “does not inhibit oxygen consumption”, the “change in clearance with time” value ([1]; human subjects, 135 mg and 270 mg) was “no change in clearance with time” and the “mean Cmaxss” value ([1]; human subjects, 135 mg, steady state day 8) was 9488 ng/mL. For the same molecule, the “mean Cmaxss” value ([1]; human subjects, 270 mg, steady state day 8) was 17200 ng/mL, the AUC ([1]; human, plasma, oral, start dose 150 mg, generated from MAD PK data, SD 33, 95% CI 102-232, read-out: geometric mean AUCtau) was 167 µg·h/mL and the AUC ([1]; in vivo, human subjects, 135 mg, steady state day 8, read-out: mean AUC0-tau ss) was 135 µg·h/mL. For the same molecule, the AUC ([1]; in vivo, human subjects, 270 mg, steady state day 8, read-out: mean AUC0-tau ss) was 299 µg·h/mL, the “Cmin ss associated with the target AUC0-tau ss” value ([1]; line of best fit of day 8 MAD data, target AUC0-tau ss 200 μg·h/mL) was 5716 ng/mL and the IC50 (HeLa cells) was roughly 5 µM.
